From ChEMBL document CHEMBL3612062, “Antitumor activity of endoperoxide-iron chelator conjugates-design, synthesis and biological evaluation” (Eur J Med Chem, 2015)

How the values were obtained:
[1] = test system: HL-60; test: Cytotoxicity against human HL60 cells after 48 hrs by MTT assay; assay type: functional, cell-based; conditions: HL-60, 48 h
[2] = test system: A549; test: Cytotoxicity against human A549 cells after 48 hrs by MTT assay; assay type: functional, cell-based; conditions: A549, 48 h
[3] = test system: SW480; test: Cytotoxicity against human SW480 cells after 48 hrs by MTT assay; assay type: functional, cell-based; conditions: SW480, 48 h
[4] = test system: SMMC-7721; test: Cytotoxicity against human SMMC7721 cells after 48 hrs by MTT assay; assay type: functional, cell-based; conditions: SMMC-7721, 48 h
[5] = Cytotoxicity against human HL7702 cells after 48 hrs by MTT assay; assay type: cell-based; conditions: L02, 48 h
[6] = test system: SMMC-7721; test: Increase of cell survival in human SMMC7721 at 50 uM after 48 hrs by MTT assay in presence of deferoxamine; assay type: functional
[7] = Metal chelating activity of the compound assessed as formation of iron-compound complex at 100 uM using FeSO4 by UV-vis spectrometry; assay type: physicochemical
[8] = Metal chelating activity of the compound assessed as formation of iron-compound complex at 100 uM using FeCl3 by UV-vis spectrometry; assay type: physicochemical
[9] = Binding affinity to ferric oxide assessed as dissociation degree at 1:1 ligand to metal ratio by UV-visible spectrophotometry
[10] = Stability of the compound-ferric oxide complex; assay type: physicochemical
[11] = Selectivity ratio of IC50 for human HL7702 cells to IC50 for human SMMC7721 cells; assay type: ADME, cell-based, SMMC-7721; conditions: HL7702 cells versus SMMC7721 cells, read-out: Ratio IC50
[12] = test system: SMMC-7721; test: Induction of apoptosis in human SMMC7721 cells at 10 uM after 24 hrs using annexin-V FITC and propidium iodide staining by flow cytometry analysis; assay type: functional
[13] = test system: SMMC-7721; test: Induction of apoptosis in human SMMC7721 cells at 20 uM after 24 hrs using annexin-V FITC and propidium iodide staining by flow cytometry analysis; assay type: functional
[14] = Binding affinity to ferric oxide assessed as dissociation degree at 2:1 ligand to metal ratio by UV-visible spectrophotometry
[15] = test system: SMMC-7721; test: Induction of apoptosis in human SMMC7721 cells after 24 hrs using annexin-V FITC and propidium iodide staining by flow cytometry analysis; assay type: functional, cell-based
[16] = test system: SMMC-7721; test: Cytotoxicity against human SMMC7721 cells assessed activity loss of cells at 5 uM after 48 hrs by MTT assay; assay type: functional

| Compound | IC50 [1] [µM] | IC50 [2] [µM] | IC50 [3] [µM] | IC50 [4] [µM] | IC50 [5] [µM] | Activity [6] [%] | Activity [7] | Activity [8] | Activity [9] [%] | Stability [10] | selectivity ratio [11] | Activity [12] [%] | Activity [13] [%] | Activity [14] [%] | Activity [15] | Activity [16] [%] |
| --- | --- | --- | --- | --- | --- | --- | --- | --- | --- | --- | --- | --- | --- | --- | --- | --- |
| O=C(NC1CCC2(CC1)OOC1(OO2)C2CC3CC(C2)CC1C3)c1ccc(O)c(O)c1 (centres undefined) | 25 | > 50 | > 50 | 33.8 | > 50 | 10 | Active | Active | 36 | Stable | – | – | – | – | – | – |
| Oc1ccc(NC2CCC3(CC2)OOC2(OO3)C3CC4CC(C3)CC2C4)c2cccnc12 (mixture of isomers) | 6 | 11.8 | > 50 | 7.5 | 27.7 | 15 | Active | Active | – | Stable | 3.71 | 12.2 | 33.2 | 18 | Dose-dependent effect | – |
| O=C1CCC2(CC1)OCC1(OO2)C2CC3CC(C2)CC1C3 (centres undefined) | > 100 | > 100 | > 100 | > 100 | > 100 | – | – | – | – | – | – | – | – | – | – | – |
| O=C1CCC2(CC1)OOC1(O2)C2CC3CC(C2)CC1C3 (centres undefined) | > 100 | > 100 | > 100 | > 100 | > 100 | – | – | – | – | – | – | – | – | – | – | – |
| O=C(O)[C@H]1CC[C@]2(CC1)OO[C@]1(O2)C2CC3CC(C2)CC1C3 | > 100 | > 100 | > 100 | > 100 | > 100 | – | – | – | – | – | – | – | – | – | – | – |
| O=C(N[C@H]1CC[C@]2(CC1)OC[C@]1(O2)C2CC3CC(C2)CC1C3)c1ccc(O)c(O)c1 (mixture of isomers) | 35.5 | > 50 | > 50 | > 50 | > 50 | – | – | – | – | – | – | – | – | – | – | – |
| O=C(NO)[C@H]1CC[C@]2(CC1)OO[C@]1(O2)C2CC3CC(C2)CC1C3 (mixture of isomers) | > 50 | > 50 | > 50 | > 50 | > 50 | – | – | – | – | – | – | – | – | – | – | – |
| Oc1ccc(N[C@H]2CC[C@@]3(CC2)OC[C@]2(OO3)C3CC4CC(C3)CC2C4)c2cccnc12 (mixture of isomers) | 6.6 | 23.9 | > 50 | 11 | 36 | 15 | – | – | – | – | 3.28 | – | – | – | – | – |
| O=C(N[C@H]1CC[C@]2(CC1)OO[C@]1(O2)C2CC3CC(C2)CC1C3)c1ccc(O)c(O)c1 (mixture of isomers) | 31.2 | > 50 | > 50 | > 50 | > 50 | 10 | – | – | – | – | – | – | – | – | – | – |
| O=C1CCC2(CC1)OOC1(OO2)C2CC3CC(C2)CC1C3 | > 100 | > 100 | > 100 | > 100 | > 100 | – | – | – | – | – | – | – | – | – | – | – |
| O=C(NO)[C@H]1CC[C@@]2(CC1)OC[C@]1(OO2)C2CC3CC(C2)CC1C3 (mixture of isomers) | > 50 | > 50 | > 50 | > 50 | > 50 | – | – | – | – | – | – | – | – | – | – | – |
| O=C(N[C@H]1CC[C@@]2(CC1)OC[C@]1(OO2)C2CC3CC(C2)CC1C3)c1ccc(O)c(O)c1 (mixture of isomers) | 34.8 | > 50 | > 50 | > 50 | > 50 | 10 | – | – | – | – | – | – | – | – | – | – |
| O=C(O)c1ccc(O)c(O)c1 [PROTOCATECHUIC ACID] | > 50 | > 50 | > 50 | > 50 | > 50 | – | – | – | – | – | – | – | – | – | – | – |
| O=C(O)[C@H]1CC[C@@]2(CC1)OC[C@]1(OO2)C2CC3CC(C2)CC1C3 | > 100 | > 100 | > 100 | > 100 | > 100 | – | – | – | – | – | – | – | – | – | – | – |
| Oc1ccc(NC2CCC3(CC2)OCC2(CO3)C3CC4CC(C3)CC2C4)c2cccnc12 (mixture of isomers) | 12.9 | 45.6 | > 50 | 20.3 | 41.9 | – | – | – | – | – | 2.06 | – | – | – | – | – |
| O=C(O)C1CCC2(CC1)OOC1(OO2)C2CC3CC(C2)CC1C3 (centres undefined) | > 100 | > 100 | > 100 | > 100 | > 100 | – | – | – | – | – | – | – | – | – | – | – |
| C[C@H]1[C@@H](O)O[C@@H]2O[C@@]3(C)CC[C@H]4[C@H](C)CC[C@@H]1[C@@]24OO3 [ARTENIMOL] | 18.7 | 30.1 | > 100 | 13.8 | 34.9 | – | – | – | – | – | 2.52 | – | – | – | – | – |
| Oc1ccc(N[C@H]2CC[C@]3(CC2)OC[C@]2(O3)C3CC4CC(C3)CC2C4)c2cccnc12 (mixture of isomers) | 9.2 | 17.2 | > 50 | 12.6 | 30.1 | – | – | – | – | – | 2.39 | – | – | – | – | – |
| O=C(NO)C1CCC2(CC1)OOC1(OO2)C2CC3CC(C2)CC1C3 (centres undefined) | > 50 | > 50 | > 50 | > 50 | > 50 | – | – | – | – | – | – | – | – | – | – | – |
| Nc1ccc(O)c2ncccc12 | 13.8 | > 50 | > 50 | > 50 | > 50 | – | – | – | – | – | – | – | – | – | – | – |
| O=C(NC1CCC2(CC1)OCC1(CO2)C2CC3CC(C2)CC1C3)c1ccc(O)c(O)c1 (mixture of isomers) | 30.1 | > 50 | > 50 | > 50 | > 50 | – | – | – | – | – | – | – | – | – | – | – |
| CC(=O)N(O)CCCCCNC(=O)CCC(=O)N(O)CCCCCNC(=O)CCC(=O)N(O)CCCCCN [DEFEROXAMINE] | – | – | – | – | – | – | – | – | – | – | – | – | – | – | – | 5 |
| Oc1ccc(N[C@H]2CC[C@]3(CC2)OO[C@]2(O3)C3CC4CC(C3)CC2C4)c2cccnc12 (mixture of isomers) | 8.1 | 15.9 | > 50 | 7.3 | 25.7 | 15 | – | – | – | – | 3.52 | – | – | – | – | – |
